Results: US8003801B2 (The Scripps Research Institute, priority 2005, dated 2011)
Values joined by “and” are separate entries in the source; they are usually repeats but may differ in a detail not shown here. Equal entries are not always repeated. “Also recorded” adds a separate entry of the source. Where two headings read alike, the source gives them in different places.

Key:
[1] = test system: 1A9 human ovarian cancer cell line; test: 72 hour growth-inhibition (cytotoxicity) assay, 1A9 cells; format: cell-based; conditions: for RAEpoB (relative activity), 1A9: ratio of IC50 of EpoB to IC50 of the tested compound in the concurrent assay
[2] = test system: 1A9/PTX10, Taxol-resistant 1A9 cell line (β270 Phe→Val); test: 72 hour growth-inhibition (cytotoxicity) assay, 1A9/PTX10 cells; format: cell-based, human; conditions: for RRp (relative resistance), 1A9/PTX10: IC50 of 1A9/PTX10 divided by IC50 of the parental cell line 1A9; for RAEpoB (relative activity), 1A9/PTX10: ratio of IC50 of EpoB to IC50 of the tested compound in the concurrent assay
[3] = test system: 1A9/A8, EpoA-resistant 1A9 cell line (β274 Thr→Ile); test: 72 hour growth-inhibition (cytotoxicity) assay, 1A9/A8 cells; format: cell-based, human; conditions: for RRp (relative resistance), 1A9/A8: IC50 of 1A9/A8 divided by IC50 of the parental cell line; for RAEpoB (relative activity), 1A9/A8: ratio of IC50 of EpoB to IC50 of the tested compound in the concurrent assay
[4] = test system: A2780/AD10, drug-resistant clone of human ovarian carcinoma A2780 overexpressing P-glycoprotein; test: 72 hour growth-inhibition (cytotoxicity) assay, A2780/AD10 cells; format: cell-based; conditions: for IC50: 72 hour growth inhibition, sulforhodamine-B staining, mean of 3-5 experiments ± SEM; for RRp (relative resistance), A2780/AD10: IC50 of A2780/AD10 divided by IC50 of the parental cell line; for potency enhancement over EpoB, A2780/AD10: PgP-overexpressing cell line
[5] = test system: KB-31 human epidermoid cancer cell line; test: 72 hour growth-inhibition (cytotoxicity) assay, KB-31 cells; format: cell-based
[6] = test system: drug-sensitive and drug-resistant human cancer cell lines; test: Cytotoxicity assays across the panel of cell lines (summary in words); format: cell-based; conditions: summary of Tables 1A-1C
[7] = test system: KB-8511, Taxol-resistant (Pgp-overexpression) KB cell line; test: 72 hour growth-inhibition (cytotoxicity) assay, KB-8511 cells
Method: In addition, further cytotoxicity studies were carried out using a pair of drug-sensitive parental human epidermoid carcinoma cells (KB-31) and its Taxol™-resistant Pgp-overexpressing subline (KB-5811).

[8] = Homo sapiens, 1A9, 72 hour growth inhibition, sulforhodamine-B staining, mean of 3-5 independent experiments ± standard error of the mean, read-out: 1A9 IC50
[9] = Homo sapiens, 1A9/ptx-10, 72 hour growth inhibition, sulforhodamine-B staining, mean of 3-5 experiments ± SEM, read-out: 1A9/PTX10 IC50
[10] = Homo sapiens, 1A9, 72 hour growth inhibition, sulforhodamine-B staining, mean of 3-5 experiments ± SEM, read-out: 1A9/A8 IC50
[11] = Homo sapiens, KB 3-1, 72 h, read-out: KB-31 IC50
[12] = read-out: KB-8511 IC50, 72 hour growth inhibition, methylene blue staining, mean of 3-5 experiments ± SEM
[13] = Homo sapiens, 1A9, Table 2, tested epothilone, unit from Table 1A note a, read-out: IC50, 1A9 (Table 2)
[14] = Homo sapiens, 1A9/ptx-10, Table 2, tested epothilone, unit from Table 1A note a, read-out: IC50, 1A9/PTX10 (Table 2)
[15] = Homo sapiens, 1A9, Table 2, tested epothilone, unit from Table 1A note a, read-out: IC50, 1A9/A8 (Table 2)
[16] = Homo sapiens, KB 3-1, read-out: IC50, KB-31 (Table 2)
[17] = read-out: IC50, KB-5811 (Table 2), Table 2, tested epothilone, cell line KB-5811, unit from Table 1A note a

SMILES | IC50 [1, 8] | IC50 [2, 9] | RRp (relative resistance), 1A9/PTX10 [2] | IC50 [3, 10] | RRp (relative resistance), 1A9/A8 [3] | IC50 ([4]; Homo sapiens, A2780) | RRp (relative resistance), A2780/AD10 [4] | IC50 [5, 11] | cytotoxicity across the tested cell lines, in words [6] | IC50 [7, 12] | IC50 [1, 13] | RAEpoB (relative activity), 1A9 [1] | IC50 [2, 14] | RAEpoB (relative activity), 1A9/PTX10 [2] | IC50 [3, 15] | RAEpoB (relative activity), 1A9/A8 [3] | potency enhancement over EpoB, A2780/AD10 [4] | IC50 [5, 16] | IC50 [7, 17] | other results
CC(=O)SCc1nc(/C=C(\C)[C@@H]2C[C@@H]3O[C@]3(C)CCC[C@H](C)[C@H](O)[C@@H](C)C(=O)C(C)(C)[C@@H](O)CC(=O)O2)cs1 [Compound 6] | 5.4 ± 1.1 nM | 28.2 ± 9.3 nM | 5.2 | 49.8 ± 34.5 nM | 9.2 | 8.6 ± 3.3 nM | 45.3 | 1.18 ± 0.12 nM | less potent than EpoB, exhibited high potency against several of the tested cell lines | 8.39 ± 1.37 nM | – | – | – | – | – | – | – | – | – | –
CSc1cc(/C=C(\C)[C@@H]2C[C@@H]3O[C@]3(C)CCC[C@H](C)[C@H](O)[C@@H](C)C(=O)C(C)(C)[C@@H](O)CC(=O)O2)nn1C [Compound 16] | 0.06 ± 0.04 nM | 0.1 nM | 1.7 | 0.6 ± 0.5 nM | 10.0 | 30.3 ± 17.7 nM | 8.2 | 0.09 ± 0.01 nM | the most potent of all compounds tested; also recorded: outperformed EpoB in all five cancer cell lines tested | 0.14 ± 0.01 nM | 0.06 nM | 16.5 | 0.1 nM | 78.0 | 0.6 nM | 16.7 | 4 fold | 0.09 nM | 0.14 nM | potency (activity) increase as compared to EpoB, 1A9 ([1]; 1A9 parental cell line): 17 fold and 16.5 fold; potency increase as compared to EpoB, 1A9/PTX10 ([2]; Taxol-resistant cell line): 78 fold and 78.0 fold; potency (activity) increase as compared to EpoB, 1A9/A8 ([3]; EpoA-resistant cell line): 17 fold and 16.7 fold; potency increase as compared to EpoB, KB cell lines ([5]; KB cell lines (KB-31 and KB-8511 together)): 3-5 fold
C/C(=C\c1ccn(C)n1)[C@@H]1C[C@@H]2O[C@]2(C)CCC[C@H](C)[C@H](O)[C@@H](C)C(=O)C(C)(C)[C@@H](O)CC(=O)O1 [Compound 14] | 0.5 ± 0.3 nM | 1.7 ± 1.1 nM | 3.4 | 0.8 ± 0.3 nM | 1.6 | 25.5 ± 15.1 nM | 4.7 | 0.19 ± 0.01 nM | more potent cytotoxicities than EpoB across the board | 0.25 ± 0.04 nM | 0.5 nM | 2.0 | 1.7 nM | 4.6 | 0.8 nM | 12.5 | 20 fold | 0.19 nM | 0.25 nM | –
C/C(=C\c1nnn(COCc2ccccc2)n1)[C@@H]1C[C@@H]2O[C@]2(C)CCC[C@H](C)[C@H](O)[C@@H](C)C(=O)C(C)(C)[C@@H](O)CC(=O)O1 [Compound 20] | 4 ± 0.3 nM | 49 ± 7 nM | 12.3 | 16.8 ± 9.2 nM | 4.2 | > 750 nM | – | 0.57 ± 0.08 nM | – | 4.44 ± 0.69 nM | – | – | – | – | – | – | – | – | – | –
COc1nc(/C=C(\C)[C@@H]2C[C@@H]3O[C@]3(C)CCC[C@H](C)[C@H](O)[C@@H](C)C(=O)C(C)(C)[C@@H](O)CC(=O)O2)nc2c1ncn2C [Compound 18] | 3.7 ± 1.8 nM | 19.8 ± 10.6 nM | 5.4 | 2.2 ± 1.6 nM | 0.6 | 47.3 ± 36.5 nM | 47.3 | 0.15 ± 0.09 nM | – | 7.45 ± 0.81 nM | – | – | – | – | – | – | – | – | – | –
C/C(=C\c1csc(C)n1)[C@@H]1C[C@@H]2O[C@]2(C)CCC[C@H](C)[C@H](O)[C@@H](C)C(=O)C(C)(C)[C@@H](O)CC(=O)O1 [EpoB, reference compound] | – | – | 7.9 | – | 10.1 | – | 15.7 | – | – | 0.39 ± 0.02 nM | – | – | – | – | – | – | – | – | – | IC50 ([1]; 72 hour growth inhibition, sulforhodamine-B staining, mean of 3-5 independent experiments ± standard error of the mean, read-out: 1A9 IC50): 0.99 ± 0.8 nM; IC50 ([1]; read-out: EpoB (IC50 in the concurrent assay), 1A9, Table 2, EpoB determined concurrently with the epothilone, unit from Table 1A note a): 0.3 nM and 0.6 nM; IC50 ([2]; 72 hour growth inhibition, sulforhodamine-B staining, mean of 3-5 experiments ± SEM, read-out: 1A9/PTX10 IC50): 7.8 ± 4.6 nM; IC50 ([2]; read-out: EpoB (IC50 in the concurrent assay), 1A9/PTX10, Table 2, EpoB determined concurrently with the epothilone): 3.7 nM and 3.1 nM; IC50 ([3]; 72 hour growth inhibition, sulforhodamine-B staining, mean of 3-5 experiments ± SEM, read-out: 1A9/A8 IC50): 10 ± 1.4 nM; IC50 ([3]; read-out: EpoB (IC50 in the concurrent assay), 1A9/A8, Table 2, EpoB determined concurrently with the epothilone): 10 nM and 6.5 nM; IC50 [4]: 56.5 ± 23.3 nM; IC50 ([5]; 72 hour growth inhibition, methylene blue staining, mean of 3-5 experiments ± SEM, read-out: KB-31 IC50): 0.42 ± 0.03 nM; IC50 ([5]; read-out: EpoB (IC50 in the concurrent assay), KB-31, Table 2, EpoB determined concurrently with the epothilone): 0.19 nM
